The results in this text go back to patent US10682341B2, “Method for treating obesity, diabetes, cardiovascular and kidney diseases by regulating GPR30/GPER activity” (STC.UNM, priority 2015, dated 2020).

One assay deals with C2C12 cells. In words: Glucose uptake in differentiated C2C12 myocytes. Type of assay: cell-based, mouse. Here is the method: (§1) For human adipocytic differentiation, human preadipocytes were purchased from Zen-Bio and differentiated with or without GPER-selective agonist G-1. Mouse myoblasts, C2C12 were grown in low glucose DMEM with 10% FBS and subcultured before reaching 70-80% confluence. For differentiation into myocytes, cells were seeded on 12-well plates and at confluence were switched to DMEM containing 2% horse serum. The medium was changed every other day and cells were used for glucose uptake assay between 6-8 days post differentiation.
Differentiated C2C12 cells were washed twice with Krebs-Ringer phosphate buffer and incubated in serum free low glucose DMEM for 3 hours. Cells were then treated with 100 nM insulin for 15 min and subsequently incubated in Krebs-Ringer phosphate buffer containing […] of 2-deoxy-d-[^3H]glucose for 20 min. The reaction was terminated by adding ice-cold PBS on plates on ice. After three washes with PBS, the cells were dissolved in 0.1% sodium dodecyl sulfate and radioactivity was quantified by liquid scintillation counting. Nonspecific deoxyglucose uptake was measured in the presence of […] cytochalasin B and was subtracted from the total uptake to get specific glucose uptake.

The next assay deals with PPARγ and ap2. Nature of the assay: Expression of adipogenic markers in 3T3-L1 cells. The conditions noted are these: 3T3-L1 cells differentiated in the presence of G-1. Type of assay: cell-based, mouse. As for the experimental part: (§2) Mouse fibroblasts, NIH 3T3-L1 cells were grown in DMEM with 10% FBS and subcultured before reaching 70% confluence. For differentiation, cells were seeded in 24 well plates or 60 mm dishes and allowed to grow till confluent. Subsequently medium was changed and cells were kept for additional two days before adding the differentiation cocktail in the medium (0.5 mM isomethylbutylxanthine, 1 μM dexamethasone and 10 μg/mL insulin) for 3 days (with or without GPER selective agonist G-1). The medium was then changed to the regular DMEM with FBS as above.
(§3) Total RNA was extracted from frozen tissues (˜100 mg) or cultured cells using the RNeasy Mini Kit. Isolated RNA (˜100 ng) was used for cDNA synthesis using the ImProm-II™ Reverse Transcription System in a final reaction volume of 20 μL in a denaturation and extension cycle. Subsequently, quantitative real time PCR was carried out in a 7500 Fast Real-Time PCR System. Gene expression was normalized to 18S RNA as an internal reference and fold change over the control was calculated using the ddCt method. Quantitative real-time PCR analyses were performed in triplicate from a minimum of 5 separate animals.

In assay [1] the test system is differentiated murine adipocytes. Nature of the assay: Mitochondrial biogenesis in differentiated murine adipocytes. It is filed as cell-based, mouse. As for the experimental part:
as §2

Assay [2] concerns ovariectomized female mice. Nature of the assay: Ovariectomized female mouse model of obesity and diabetes. The conditions noted are these: OVX females. It is filed as in vivo.
Description: (§4) For females, an ovariectomized female mouse model, with ovary-intact control animals, fed a regular chow diet, was employed. Loss of the ovaries results in the loss of endogenous estrogenic protection towards metabolic pathophysiology and weight gain, resulting in increased overall weight gain, abdominal adiposity and ensuing metabolic (including glucose and lipid) dysfunction in ovariectomized mice compared to ovary-intact control animals. For males, the model employed involves diet-induced obesity. In the absence of the estrogenic protection as in female mice, male mice fed a high fat chow gain weight and suffer from metabolic pathophysiology compared to mice on normal chow. […].
(§5) For measurement of food intake, activity and energy expenditure, mice were placed in metabolic cages. All measurements were obtained using a computer-controlled indirect calorimetry system. Prior to data collection, mice were acclimatized in the chambers for 24 hours, after which data was collected for the subsequent 48 hours, including two complete light cycles (14 h) and two complete dark cycles (10 h). Oxygen consumption (VO2), carbon dioxide production (VCO2), activity and food consumption were measured for 48 hours. The animals had ad libitum access to standard rodent chow or high fat chow and water during the study. To detect ambulatory activity and position, beam breaks in all the three planes, X, Y and Z directions, were utilized to obtain total activity. To calculate oxygen consumption (VO2) and carbon dioxide production (VCO2) were assessed by measuring the gas concentrations at the inlet and outlet of the sealed chambers.
(§6) Post euthanasia, tissues (epididymal/perirenal fat, liver) were dissected and weighed. Tibia length was measured after clearing of soft tissue. For H&E staining, at sacrifice, tissues were fixed in buffered formalin for 24 hours and subsequently embedded in paraffin. Tissue sections (5 μm-thick) were stained with Hematoxylin and Eosin.
(§7) Prior to GTT and ITT, mice were fasted for 4 hours and basal glucose (0 min) was measured. Subsequently, mice were intraperitoneally injected with glucose (2 g/kg body weight) or insulin (0.5 U/kg body weight). After the injection, blood glucose was monitored at regular time intervals (15, 30, 60 and 120 min after injection) from tail nicks. Additionally, for measuring the fasting insulin, blood was collected from the tail nicks at 0 time point and plasma was separated and used for measuring the fasting insulin using a mouse Insulin ELISA kit. Blood glucose was monitored using a glucose meter.
as §3

The next assay deals with 3T3-L1 cells. Nature of the assay: Lipid accumulation in 3T3-L1 adipocytes (Oil Red O staining). Type of assay: cell-based, mouse. As to conditions: 3T3-L1 murine adipocytes, G-1 during differentiation. Here is the method: as §2
(§8) Eight days after differentiation, adipocytes are briefly rinsed with PBS and fixed in 4% PFA for 30-60 min and washed with PBS. Freshly prepared Oil Red-O working solution was added to cells and incubated for ˜60 min at room temperature, washed t 3 times with PBS and air dried. Images were acquired or lipids extracted with isopropanol and absorbance at 520 nm to quantitate the lipids measured.

A further assay concerns human adipocytes. Nature of the assay: Lipid accumulation in human adipocytes (Oil Red O staining). As to conditions: G-1 during differentiation. Type of assay: cell-based. As for the experimental part:
as §1, §8

In another assay the test system is high fat diet male mice. In words: Diet induced obesity (high fat diet) male mouse model. It is filed as in vivo. As to conditions: HFD males.
Description: as §4, §5, §6, §7

Assay [3] has as its system AMP-activated protein kinase (AMPK). Nature of the assay: AMPK activation in differentiated murine adipocytes. It is filed as cell-based, mouse. Here is the method:
as §2
Tissues were homogenized in RIPA buffer supplemented with sodium fluoride (50 mM), sodium orthovanadate (1 mM), phenylmethylsulfonylfluoride (1 mM), and protease cocktail. Protein amounts were quantified by Bradford method and equal amounts (30 μg) of protein were loaded for all the samples on 4-20% SDS-PAGE gel. Proteins were then transferred to polyvinylidene fluoride membrane, blocked with 3% newborn calf serum in TBST before overnight incubation with primary antibodies. Subsequently, blots were incubated with secondary HRP-conjugated antibodies and developed using SuperSignal West Pico Chemiluminescent Substrate. Blots were then scanned and quantified using ImageJ software.

“Also recorded” adds a separate entry of the source.

In the case of `CC(=O)c1ccc2c(c1)C1C=CCC1C(c1cc3c(cc1Br)OCO3)N2` (centres unmarked) [G-1], the “cellular uptake of glucose” value with C2C12 cells was “increased the cellular uptake of glucose; also recorded: increases glucose uptake”. The “expression of adipogenic markers PPARγ and ap2” value in the assay on PPARγ and ap2 was “lower levels of adipogenic markers; also recorded: down regulates”. The mitochondrial biogenesis result in assay [1] is given as “increased the mitochondrial biogenesis; also recorded: increases mitochondrial biogenesis”. Further, in assay [2], the “adipocyte size in perigonadal fat (H&E staining)” value was “smaller adipocytes”; the “antioxidant markers in muscle and liver” value is reported as “increases antioxidant markers”; the fasting glucose levels entry is “lower fasting glucose levels; also recorded: decreases fasting blood glucose”; the “glucose tolerance (glucose tolerance test)” value was “improves glucose tolerance”. The “insulin sensitivity (insulin tolerance test)” value in assay [2] was “enhances insulin sensitivity”. In addition, the total body weight result in assay [2] (G-1 200 μg, 3 days per week, subcutaneously for 6 weeks vs vehicle) is listed as “attenuates weight gain; also recorded: decrease in the total body weight”. Moreover, in assay [2] (after 6 week treatment), the “weights of perigonadal fat pads” value was “decreased weights of perigonadal fat pads; also recorded: lower”. Also, the “mRNA levels of pro-inflammatory, angiogenic and lipogenic markers in adipose tissue” value in assay [2] (gonadal fat, quantitative PCR) was “lower; also recorded: reduces inflammatory, angiogenic and lipogenic markers”. The “energy expenditure (O2 consumption)” value in assay [2] (metabolic cages) was “increase in O2 consumption; also recorded: increased energy expenditure”. The “pro-inflammatory and lipogenic markers in skeletal muscle and liver” value in assay [2] (quantitative PCR) was “decreased pro-inflammatory and lipogenic markers; also recorded: reduces lipogenic and inflammation”. The lipid accumulation result with 3T3-L1 cells is “decreased lipid accumulation; also recorded: inhibits lipid accumulation”. Further, the lipid accumulation entry in the assay with human adipocytes is listed as “decreased lipid accumulation; also recorded: inhibits lipid accumulation”. Besides, in the assay with high fat diet male mice, the fasting glucose levels entry was “lower fasting glucose levels; also recorded: decreases fasting blood glucose”, the “glucose tolerance (glucose tolerance test)” value was “improves glucose tolerance” and the “insulin sensitivity (insulin tolerance test)” value was “improved insulin sensitivity; also recorded: enhances insulin sensitivity”. The total body weight entry in the assay on high fat diet male mice (G-1 200 μg, 5 days per week, subcutaneously for 8 weeks vs vehicle) is “attenuates weight gain; also recorded: decrease in the total body weight”. Besides, in the assay on high fat diet male mice (after 8 week treatment), the liver weights entry is reported as “significant decrease in liver weights; also recorded: lower” and the “perirenal adipose fat pad weights” value is on record as “significant decrease; also recorded: lower”. Moreover, the “energy expenditure (O2 consumption)” value in the assay on high fat diet male mice (metabolic cages) is given as “increase in O2 consumption; also recorded: increased energy expenditure”. Besides, the AMPK activation entry in assay [3] is “activated AMP-activated protein kinase (AMPK); also recorded: activates AMPK”.
